Entries after “also recorded” stand apart in the source; their conditions may differ. Where two headings read alike, the source gives them in different places.
Legend:
PKC-ζ [1] = target: T1, PKC-ζ (Homo sapiens, UniProt Q05513); details: cited from earlier work
T1 construct: harvested and whole cell extracts were prepared; endogenous in cells; host or cells: HT-29
T1 sequence (Q05513 1-592): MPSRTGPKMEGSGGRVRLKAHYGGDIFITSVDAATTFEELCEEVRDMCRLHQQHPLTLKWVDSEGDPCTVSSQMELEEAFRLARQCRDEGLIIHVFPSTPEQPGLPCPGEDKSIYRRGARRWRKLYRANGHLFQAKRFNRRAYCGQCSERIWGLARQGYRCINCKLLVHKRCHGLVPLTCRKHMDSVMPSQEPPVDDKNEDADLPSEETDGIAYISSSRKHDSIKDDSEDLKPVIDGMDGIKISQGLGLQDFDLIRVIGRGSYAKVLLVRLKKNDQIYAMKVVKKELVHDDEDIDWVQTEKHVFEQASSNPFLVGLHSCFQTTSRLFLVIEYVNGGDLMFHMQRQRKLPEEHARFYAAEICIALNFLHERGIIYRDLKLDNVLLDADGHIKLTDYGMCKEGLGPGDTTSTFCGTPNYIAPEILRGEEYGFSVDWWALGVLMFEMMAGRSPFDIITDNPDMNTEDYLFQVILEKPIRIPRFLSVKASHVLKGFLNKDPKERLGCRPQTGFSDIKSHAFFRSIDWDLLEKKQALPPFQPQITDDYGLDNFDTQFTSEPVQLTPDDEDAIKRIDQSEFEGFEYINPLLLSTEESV

[2] = system: HT-29 colon cancer cell line; experiment: HT-29 colon cancer cell proliferation, viable cell count (Tryphan blue exclusion, scepter); assay type: cell-based; details: for HT-29 cell proliferation at 0.25 μM / HT-29 cell proliferation at 1.5 μM: after three days of treatment; for effect on HT-29 cell proliferation with concentration: 24-72 hours, several concentrations; for IC50: HT-29, three days of treatment, read-out: decrease of growth of HT-29 cells by 50 percent (IC50)
Procedure: (§1) The colon cancerous cell line, HT-29 and normal colon epithelial cells, CCD18CO were obtained from American Type Tissue Culture Collection. The HT-29 cells and CCD18CO cells were subculture and maintained in T75 flasks containing McCoy's media and Eagle's Minimum Essential Media respectively, both of the flasks were supplemented with 10% FBS (Fetal Bovine Serum) and 1% antibiotics (Penicillin 10 U/ml and streptomycin 10 mg/ml). Cells were incubated at 37° C. and 5% CO2. After few days of incubation following subculture, cells were used at 70-80% confluency for the experiment.
Cells (3.0×10^4/well) were grown as monolayer on 6 wells plate. […] Cells are then washed (2 ml 2× DPBS buffer), trypsinized, resuspended in McCoy's 5A media and counted with hemocytometer, Scepter & MTT assay.
After starting treatment, viable cells were counted at each 24 hours interval using Tryphan blue exclusion assay and scepter. The data represents n=4 independent experiments.
HT-29 cells were treated with five different concentrations of DNDA for 24-72 hours. After starting treatment, viable cells were counted at each 24 hours interval using Tryphan blue exclusion assay and scepter. The data represents n=4 independent experiments.
HT-29 cells were treated with five different concentrations of ICA-1 for 24-72 hours. After starting treatment, viable cells were counted at each 24 hours interval using Tryphan blue exclusion assay and scepter. The data represents n=4 independent experiments.
HT-29 cells were treated with four different concentrations of ζ-Stat for 24-72 hours. After starting treatment, viable cells were counted at each 24 hours interval using Tryphan blue exclusion assay and scepter. The data represents n=4 independent experiments.

PKC-ι [3] = target: T2, PKC-ι (Homo sapiens, UniProt P41743); details: cited from earlier work
T2 construct: harvested and whole cell extracts were prepared; endogenous in cells; host or cells: HT-29
T2 sequence (P41743 1-596): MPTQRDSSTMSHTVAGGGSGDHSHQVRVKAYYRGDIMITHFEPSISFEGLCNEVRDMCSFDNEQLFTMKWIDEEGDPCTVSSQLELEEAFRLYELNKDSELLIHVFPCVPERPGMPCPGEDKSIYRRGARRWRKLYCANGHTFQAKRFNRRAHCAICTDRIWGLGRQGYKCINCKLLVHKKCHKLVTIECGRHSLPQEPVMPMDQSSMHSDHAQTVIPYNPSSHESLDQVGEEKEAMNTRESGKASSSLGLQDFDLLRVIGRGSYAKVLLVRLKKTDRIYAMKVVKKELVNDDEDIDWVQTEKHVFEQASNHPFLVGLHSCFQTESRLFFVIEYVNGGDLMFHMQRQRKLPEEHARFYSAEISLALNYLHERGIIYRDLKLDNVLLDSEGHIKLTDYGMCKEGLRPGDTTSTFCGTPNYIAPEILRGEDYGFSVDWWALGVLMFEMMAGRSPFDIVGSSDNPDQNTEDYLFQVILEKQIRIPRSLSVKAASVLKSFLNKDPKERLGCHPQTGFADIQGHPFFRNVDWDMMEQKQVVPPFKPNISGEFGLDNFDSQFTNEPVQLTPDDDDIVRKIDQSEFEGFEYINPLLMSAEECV

[4] = system: CCD18CO normal colorectal cells; experiment: Western blot of survival and apoptotic proteins in CCD18CO normal cells; assay type: cell-based; details: 7 μM, 72 hours, immunoblot
Procedure: (§2) CCD18CO cells were treated with 7 μM ICA-I or 7 μM ζ-Stat, respectively, for 72 hours, harvested and whole cell lysates were prepared. Equal amounts (40 μg) of protein were loaded on SDS-PAGE followed by immunoblotting for PKC-ι, PKC-ζ, Caspase-3, BCL-XL, and β-actin to see the effect of specific aPKC inhibition on survival and apoptotic proteins. Data represents n=3 independent experiments.

PKC-ι [5] = target: T2, PKC-ι; experiment: Western blot of PKC-ι expression and phosphorylation in HT-29 cells; assay type: cell-based; details: HT-29, 72 hours, increasing concentrations, immunoblot
Procedure: (§3) Cells were cultured (9.0×10^4) in 100 mm cell culture flasks. […] Equal volume of sterile water (vehicle control) as the volume of drug was added in the control also. Treatment was continued for three consecutive days. Total cell-lysates were prepared and subjected to western blot analysis for aPKC analysis.
(§4) Because PKC-ι and PKC-ζ are homologous (84%) in terms of amino acids sequence of their catalytic domain [7], the specificity of the effect of ζ-Stat on PKC-ζ was tested by performing western blot analysis. HT-29 colorectal cancerous cells were treated with seven different concentrations of ζ-Stat for 72 hours, harvested and whole cell extracts were prepared. Equal amounts (40 μg) of protein were loaded on SDS-PAGE followed by immunoblotting for pPKC-ι(T555), PKC-ι, pPKC-ζ(T410), PKC-ζ, pAKT(S473) and β-actin to examine the effect of ζ-Stat on those protein levels. Data represents n=3 independent observations.

PKC-ζ [6] = target: T1, PKC-ζ; experiment: Western blot of PKC-ζ expression and phosphorylation in HT-29 cells; assay type: cell-based; details: HT-29, 72 hours, increasing concentrations, immunoblot
Procedure: as §3, §4

[7] = system: HT-29 colorectal cancer cells; experiment: Western blot of survival and apoptotic proteins (Caspase-3, BCL-XL, Survivin) in HT-29 cells; assay type: cell-based; details: HT-29, 7 μM, 72 hours, immunoblot
Procedure: as §2, with “HT-29 colorectal cancer” for “CCD18CO”, “ζ-Stat” for “ζ-Stat, respectively,”, “for” for “for PKC-ι, PKC-ζ,”, “BCL-XL, Survivin” for “BCL-XL,”, “determine” for “see”, “effects” for “effect”

[8] = system: CCD18CO normal colon epithelial cell line; experiment: MTT assay on CCD18CO normal colon epithelial cells; assay type: cell-based
Procedure: as §1
To establish the efficacy of ζ-Stat as a specific inhibitor of PKC-ζ, the effect of ζ-Stat on CCD18CO normal colon epithelial cell line was tested. CCD18CO normal epithelial cell line cells were treated with four different concentrations of ζ-Stat for three consecutive days followed by incubation with MTT reagent and taking absorbance reading at each half an hour interval for three hours at 577 nm using microplate reader. The data represents n=3 independent experiments.
The percentage of inhibition of CCD18C0 cell growth was measured after three hours of MTT incubation. […] The data represents n=3 independent replicates (FIG. 19).

| Structure (SMILES) | inhibition of PKC-ζ (PKC-ζ [1]) | HT-29 cell proliferation at 0.25 μM [2] | HT-29 cell proliferation at 1.5 μM [2] | effect on HT-29 cell proliferation with concentration [2] | IC50 [2] | inhibition of PKC-ι (PKC-ι [3]) | toxicity to normal epithelial cells CCD18CO [4] | effect on PKC-ι (PKC-ι [5]) | level / phosphorylation of PKC-ζ (PKC-ζ [6]) | level of pro-survival proteins [7] | effect on normal colon epithelial cells CCD18CO (cell number / toxicity) ([8]; 1.0-3.0 μM, three consecutive days, MTT) | percent inhibition of CCD18CO cell growth ([8]; after three hours of MTT incubation) | IC50 ([2]; Homo sapiens, 72 h) | inhibition of HT-29 cells ([2]; treatment over three days) |
| --- | --- | --- | --- | --- | --- | --- | --- | --- | --- | --- | --- | --- | --- | --- |
| Nc1c(S(=O)(=O)O)cc2cc(S(=O)(=O)O)ccc2c1N [DNDA, 3,4, diamino-2,7-naphthalene disulfonic acid] | about 80% | slight decrease in proliferation | dramatic decrease in proliferation | decrease colon cancer cell proliferation in a dose-dependent manner | ~780 nM | about 20% |  |  |  |  |  |  |  |  |
| NC(=O)c1ncn(C2CC(COP(=O)(O)O)C(O)C2O)c1N (stereo not drawn) [ICA-1, [4-(5-amino-4-carbamoylimidazol-1-yl)-2,3-dihydroxycyclopentyl] methyl dihydrogen phosphate] |  | slight increase in cell proliferation | dramatic decrease in cell proliferation | decrease colon cancer cell proliferation in a dose-dependent manner | ~950 nM |  | not toxic |  |  |  |  |  |  |  |
| O=S(=O)(O)c1cc(O)c2c(S(=O)(=O)O)cc(S(=O)(=O)O)cc2c1 [ζ-Stat, 8-hydroxy-1,3,6-naphthalenetrisulfonic acid] |  |  | dramatic decrease in cell proliferation | inhibits colon cancer cell proliferation in a dose-dependent manner |  |  | not toxic | without affecting PKC-ι; also recorded: specifically inhibits PKC-ζ not PKC-ι | decrease the levels of total and phosphorylated PKC-ζ; also recorded: selective decrease in the phosphorylation of PKC-ζ | decreases the level of pro-survival proteins | not toxic; also recorded: did not change | less than 10% | ~1400 nM | about 60% |

From patent US11337944B2, “Method of treating colorectal cancers using a PKC inhibitor” (UNIVERSITY OF SOUTH FLORIDA, priority 2016, dated 2022)
